Patent US20150314007A1, “LINKER-PAYLOAD MOLECULE CONJUGATES” (GLYKOS FINLAND OY, priority 2012, published 2015)
Where a SMILES comes first, the peptide text is derived from it. [ ]: non-standard residue; d: D form. The star is where a group is joined. Dolaproine = CO[C@@H]([C@@H]1CCCN1)[C@@H](C)C(=O)O; Dil = CC[C@H](C)[C@H](NC)[C@@H](CC(=O)O)OC; Doe = c1ccc(C[C@H](N*)c2nccs2)cc1; NMeV = CN[C@H](C(=O)O)C(C)C

Test system: Human ovarian cancer cell line SKOV-3
Test: In vitro cytotoxicity, SKOV-3 cell viability (PrestoBlue)
Conditions: for cytotoxicity compared with 1 (MMAF): SKOV-3, applied to the cell culture medium; for cytotoxicity compared with 2 (monomethyldolastatin 10): SKOV-3
[1] = SKOV-3, 96 h, concentration range wherein viability falls to 50%, measured range 1 nM-10 μM

Method: Human ovarian cancer cell line SKOV-3 was from the ATCC (Manassas, Va., USA). The cells were grown according to the manufacturer's recommendations. Log phase cultures were collected and 5000 cells/well were seeded onto 96-well plates and incubated for 24 h. Serial dilutions of test molecules from a stock solution of 100 μM in 10% DMSO were made in cell culture medium, added to cells (maximum concentration of dimethylsulphoxide was 1%) and cultures were incubated further for 96 h. Cell viability was evaluated using PrestoBlue cell viability reagent (Life Technologies, Carlsbad, Calif., USA) according to the manufacturer's instructions. Cells were incubated for 2 h, and dye reduction was measured by absorbance at 570 nm. The compounds were assayed 1-2 times in triplicate.

Row | Molecule | IC50 [1] [nM] | IC50 (Homo sapiens, SK-OV-3, 96 h) [nM] | cytotoxicity compared with 1 (MMAF) | cytotoxicity compared with 2 (monomethyldolastatin 10)
1 | CC[C@H](C)[C@@H]([C@@H](CC(=O)N1CCC[C@H]1[C@H](OC)[C@@H](C)C(=O)N[C@@H](Cc1ccccc1)C(=O)O)OC)N(C)C(=O)[C@@H](NC(=O)[C@@H](NC)C(C)C)C(C)C [Compound 1, Monomethylauristatin F, reference compound] (HELM PEPTIDE1{[meV].V.[CC[C@H](C)[C@@H]([C@@H](CC(=O)[*:2])OC)N(C)[*:1]].[CO[C@H]([C@@H](C)C(=O)[*:2])[C@@H]1CCCN1[*:1]].F}$$$$V2.0) | 100 to 1000 |  |  | 
2 | CC[C@H](C)[C@@H]([C@@H](CC(=O)N1CCC[C@H]1[C@H](OC)[C@@H](C)C(=O)N[C@@H](Cc1ccccc1)c1nccs1)OC)N(C)C(=O)[C@@H](NC(=O)[C@@H](NC)C(C)C)C(C)C [Compound 2, monomethyldolastatin 10, reference compound] (H-[NMeV]V[Dil][Dolaproine]-Doe) | < 1 |  |  | 
3 | CCC(C)C(C(CC(=O)N1CCCC1C(OC)C(C)C(=O)NC(Cc1ccccc1)C(=O)O)OC)N(C)C(=O)C(NC(=O)C(C(C)C)N(C)CCC(O)C(O)C(O)CO)C(C)C [Compound 5, N-(2-deoxy-D-glucosyl)-MMAF] |  | 1000 | equally or only slightly less cytotoxic | 
4 | C#CCCN(C)C(C(=O)NC(C(=O)N(C)C(C(C)CC)C(CC(=O)N1CCCC1C(OC)C(C)C(=O)NC(Cc1ccccc1)C(=O)O)OC)C(C)C)C(C)C (centres unmarked) [Compound 6, N-(3-butynyl)-MMAF] |  | < 1 | more cytotoxic | 
5 | CCC(C)C(C(CC(=O)N1CCCC1C(OC)C(C)C(=O)NC(Cc1ccccc1)C(=O)O)OC)N(C)C(=O)C(NC(=O)C(C(C)C)N(C)CC(O)C(O)C(O)C(O)COC1OC(CO)C(O)C(O)C1O)C(C)C [Compound 8, N-[6-O-(β-D-galactopyranosyl)-D-galactosyl]-MMAF] |  | 1000 to 10000 | less cytotoxic | 
6 | CCC(C)C(C(CC(=O)N1CCCC1C(OC)C(C)C(=O)NC(Cc1ccccc1)C(=O)O)OC)N(C)C(=O)C(NC(=O)C(C(C)C)N(C)CC(O)C(O)C(OC1OC(CO)C(OC2OC(CO)C(O)C(O)C2O)C(O)C1O)C(O)CO)C(C)C [Compound 10, N-{4-O-[4-O-(α-D-galactopyranosyl)-β-D-galactopyranosyl]-D-glucosyl}-MMAF] |  | 1000 to 10000 |  | 
7 | CCC(C)C(C(CC(=O)N1CCCC1C(OC)C(C)C(=O)NC(Cc1ccccc1)C(=O)O)OC)N(C)C(=O)C(NC(=O)C(C(C)C)N(C)CC(O)C(O)C(OC1OC(CO)C(O)C(OC2(C(=O)O)CC(O)C(NC(C)=O)C(C(O)C(O)CO)O2)C1O)C(O)CO)C(C)C [Compound 11, N-{4-O-[3-O-(α-N-acetylneuraminyl)-β-D-galactopyranosyl]-D-glucosyl}-MMAF] |  | > 10000 | less cytotoxic | 
8 | CCC(C)C(C(CC(=O)N1CCCC1C(OC)C(C)C(=O)NC(Cc1ccccc1)c1nccs1)OC)N(C)C(=O)C(NC(=O)C(C(C)C)N(C)CC(O)C(O)C(O)C(O)CN=[N+]=[N-])C(C)C [Compound 13, N-(6-azido-6-deoxy-D-galactosyl)-dolastatin 10] |  | < 1 |  | equally or only slightly less cytotoxic
9 | N-(6-O-propargyl-D-galactosyl)-MMAF [Compound 3] | 100 to 10000 |  |  | 
10 | N-(6-azido-6-deoxy-D-galactosyl)-MMAF [Compound 4] | 100 to 1000 |  |  | 
11 | N-glutaryl-MMAF [Compound 14b] | 100 to 1000 |  |  | equally or only slightly less cytotoxic
